From US10906894B2, “Compounds containing benzo[d][1,3]oxathiole, benzo[d][1,3]oxathiole 3-oxide or benzo[d][1,3]oxathiole 3,3-dioxide and methods/uses thereof as agonists of g protein-coupled receptor 119” (PRAMANA PHARMACEUTICALS INC., priority 2016, dated 2021)

Legend:
GPR119 [1] = target: T1, GPR119 (Homo sapiens, UniProt Q8TDV5); experiment: LANCE Ultra cAMP assay: stimulation of GPR119-mediated cAMP production in CHO cells stably expressing human GPR119 receptor; assay type: cell-based; settings: for Emax: CHO, read-out: % cAMP Max.
T1 sequence (Q8TDV5 1-335): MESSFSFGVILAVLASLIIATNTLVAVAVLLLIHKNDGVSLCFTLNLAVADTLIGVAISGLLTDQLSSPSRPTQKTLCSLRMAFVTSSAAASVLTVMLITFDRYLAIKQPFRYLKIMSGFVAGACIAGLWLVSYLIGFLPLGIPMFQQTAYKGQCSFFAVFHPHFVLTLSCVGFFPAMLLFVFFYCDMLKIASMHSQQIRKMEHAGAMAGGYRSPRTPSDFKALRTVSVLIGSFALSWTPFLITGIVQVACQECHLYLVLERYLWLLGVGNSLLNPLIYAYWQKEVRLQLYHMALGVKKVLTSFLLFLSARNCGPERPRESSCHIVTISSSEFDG
Description: The potency of GPR119 receptor agonists was assessed by measuring the stimulation of GPR119-mediated cAMP production with LANCE Ultra cAMP assay (Perkin Elmer, TRF0264) in CHO cells stably expressing human GPR119 receptor (Chantest, cat. #A633). CHO-GPR119 cells were cultured in DMEM/F12 medium supplemented with 10% FBS and 1% NEAA at 37° C., 5% CO2, aliquoted and frozen in liquid nitrogen.
(§1) For assay, cells were thawed in a water bath at 37° C., washed in Hank's Balanced Salt Solution (HBSS) and resuspended in Stimulation Buffer 1 (SB1) for 30 min: 5 mM HEPES, pH 7.2-7.4, 0.1% BSA in HBSS. […] The ULight-anti-cAMP antibody (Perkin Elmer, TRF0264) was added to the cell suspension making Mix [Cell suspension/4× ULight-anti-cAMP antibodies]. […] The assay plate was centrifuged 200 g, 5 sec.
Serial dilution (100×) of tested compounds were prepared in DMSO in the range of from 30 nM to 1 mM with half-log step in 384-well plates (Greiner, 781280) using Biomek 2000. 10 test concentrations in two repeats were prepared for each CRC. […] The assay plate was incubated 30 minutes at room temperature on a shaker, 250 rpm to allow GPR119 receptor stimulation. The cAMP level was determined according to the standard kit supplier protocol (PerkinElmer, cat. #TRF0264).
(§2) The stock solution of the Eu-cAMP tracer (Perkin Elmer, TRF0264) was diluted 1:100 in cAMP Detection Buffer (Perkin Elmer, TRF0264), making 2× working concentration and added to the assay plate, 10 μL per well. Assay plate was centrifuged 180 g, 1 sec. Then the assay plate was incubated for 60′ at room temperature on shaker, 250 rpm to allow cAMP detection. The TR-FRET signal was measured at Ex-340 nm/Em-615 and Ex-340 nm/Em-665 nm on the reader Tecan M1000. 0% of cAMP stimulation corresponds to the cells with DMSO only, 100% of cAMP stimulation corresponds to the cells with 10 uM Forskolin. The EC50 value defined as the concentration of the drug that gives half-maximal response, were calculated using GraphPad Prizm 5.0 software with forskolin was used as references at each test. Entries 1-17 in Table A-2 show the biological activity of certain representative compounds using the protocol as described above.
as §1, with “cell suspension,” for “cell suspension”
as §2, with “1-14” for “1-17”, “B-2” for “A-2”

GPR119 [2] = target: T1, GPR119; experiment: PathHunter β-arrestin assay (enzyme fragment complementation, β-galactosidase reporter) monitoring activation of GPR119; assay type: cell-based; design: β-galactosidase enzyme fragment for EFC (by own knowledge the ProLink tag, fused to the receptor's C-terminus in PathHunter lines); settings: for EC50: Table B-3; for Emax: Table B-3, read-out: % cAMP Max.
Description: Certain test compounds were evaluated using the PathHunterR β-arrestin assay, which monitors the activation of GPR119 in a homogenous, non-imaging assay format using the enzyme fragment complementation (EFC) technology (DiscoverX Corporation, Fremont, Calif. U.S.A.; www.discoverx.com) with β-galactosidase as the functional reporter.

[3] = Table B-2 entries 15-39, modified protocol, 500 cells/well
[4] = reference ligands in modified protocol, 500 cells/well

EC50 (GPR119 [1]; Table B-2 entries 1-14, protocol as described (800 000 cells/mL, 5 uL/well), CHO-GPR119 cells)	EC50 (GPR119 [2])	Emax (GPR119 [2])	Emax (GPR119 [1]; [3])	EC50 (GPR119 [1]; [3])	EC50 (GPR119 [1]; [4])	maximum cAMP stimulation (GPR119 [1]; [4])	SMILES
0.0009 µM	0.0357 µM	172%					[O-][S@@+]1COc2cc(-c3ccc(OCC4CCN(c5ncc(Cl)cn5)CC4)c(F)c3)ccc21 [Example B-34, (R)-6-(4-((1-(5-chloropyrimidin-2-yl)piperidin-4-yl)methoxy)-3-fluorophenyl)-2H-benzo[d][1,3]oxathiole-3-oxide]
	0.0079 µM	164%	82%	0.0101 µM			CC(C)c1cnc(N2CCC(COc3ccc(-c4ccc5c(c4)OC[S@@+]5[O-])cc3F)CC2)nc1 [Example B-46, (S)-6-(3-fluoro-4-((1-(5-isopropylpyrimidin-2-yl)piperidin-4-yl)methoxy)phenyl)-2H-benzo[d][1,3]oxathiole 3-oxide]
	0.0164 µM	169%	66%	0.0037 µM			COc1cnc(N2CCC(COc3ccc(-c4ccc5c(c4)OC[S@@+]5[O-])cc3F)CC2)nc1 [Example B-50, (S)-6-(3-Fluoro-4-((1-(5-methoxypyrimidin-2-yl)piperidin-4-yl)methoxy)phenyl)-2H-benzo[d][1,3]oxathiole 3-oxide]
	0.0067 µM	175%	70%	0.0017 µM			[O-][S@+]1COc2cc(-c3ccc(OCC4CCN(c5ncc(Cl)cn5)CC4)c(F)c3)ccc21 [Example B-59, (S)-6-(4-((1-(5-Chloropyrimidin-2-yl)piperidin-4-yl)methoxy)-3-fluorophenyl)-2H-benzo[d][1,3]oxathiole 3-oxide]
	0.06 µM	190%	88%	0.0177 µM			CCc1cnc(N2CC[C@H](COc3ccc(-c4ccc5c(c4)OC[S@@+]5[O-])cc3F)C2)nc1 [Example B-75, (S)-6-(4-(((S)-1-(5-Ethylpyrimidin-2-yl)pyrrolidin-3-yl)methoxy)-3-fluorophenyl)-2H-benzo[d][1,3]oxathiole 3-oxide]
	0.567 µM	117%	92%	0.0315 µM			CCc1ccnc(N2CC[C@H](COc3ccc(-c4ccc5c(c4)OC[S@@+]5[O-])cc3F)C2)n1 [Example B-84, (S)-6-(4-(((S)-1-(4-Ethylpyrimidin-2-yl)pyrrolidine-3-yl)methoxy)-3-fluorophenyl)-2H-benzo[d][1,3]oxathiole 3-oxide]
	0.657 µM	73%	64%	0.013 µM			CCc1ccnc(N2CC[C@H](COc3ccc(-c4ccc5c(c4)OC[S@+]5[O-])cc3F)C2)n1 [Example B-85, (R)-6-(4-(((S)-1-(4-Ethylpyrimidin-2-yl)pyrrolidine-3-yl)methoxy)-3-fluorophenyl)-2H-benzo[d][1,3]oxathiole 3-oxide]
	0.108 µM	133%	93%	0.0046 µM			[O-][S@@+]1COc2cc(-c3ccc(OC[C@H]4CCN(c5ncc(Cl)cn5)C4)c(F)c3)ccc21 [Example B-86, (R)-6-(4-(((S)-1-(5-Chloropyrimidin-2-yl)pyrrolidine-3-yl)methoxy)-3-fluorophenyl)-2H-benzo[d][1,3]oxathiole 3-oxide]
	0.222 µM	155%	93%	0.0103 µM			CCc1cnc(N2CC[C@H](COc3ccc(-c4ccc5c(c4)OC[S@@+]5[O-])cc3)C2)nc1 [Example B-91, (S)-6-(4-(((S)-1-(5-Ethylpyrimidin-2-yl)pyrrolidine-3-yl)methoxy)phenyl)-2H-benzo[d][1,3]oxathiole 3-oxide]
					0.592 µM	100%	CCCCCCCC/C=C\CCCCCCCC(=O)NCCO [oleoyl ethanolamide, reference compound]
